Source: publication PMC2810227, “3-O-Methylfunicone, a Selective Inhibitor of Mammalian Y-Family DNA Polymerases from an Australian Sea Salt Fungal Strain” (Marine Drugs, 2009)
pIC50: −log10 of the molar value.

How the values were obtained:
[1] = system: HDF (human dermal fibroblast); assay: Proliferation and growth of normal cells, HDF; assay type: cell-based; conditions: data not shown
[2] = target: T1, human immunodeficiency virus type-1 (HIV-1) reverse transcriptase (Human immunodeficiency virus type 1 group M subtype B, UniProt P03366); assay: HIV-1 reverse transcriptase assay; assay type: biochemical; conditions: 100 μM
T1 construct: HIV-1 reverse transcriptase (recombinant); purchased Worthington Biochemical Corp. (Freehold, NJ, USA)
Description: (§1) Pol α was purified from calf thymus by immuno-affinity column chromatography, as described by Tamai et al.. Recombinant rat pol β was purified from E. coli JMpβ5, as described by Date et al.. The human pol γ catalytic gene was cloned into pFastBac. Histidine-tagged enzyme was expressed using the BAC-TO-BAC HT Baculovirus Expression System according to the supplier’s manual (Life Technologies, MD, USA) and purified using ProBoundresin (Invitrogen Japan, Tokyo, Japan). Human pols δ and ɛ were purified by nuclear fractionation of human peripheral blood cancer cells (Molt-4) using the second subunit of pols δ and ɛ-conjugated affinity column chromatography, respectively. A truncated form of human pol η (residues 1–511) tagged with His6 at its C-terminal was expressed in E. coli cells and purified as described by Kusumoto et al.. A recombinant mouse pol ι tagged with His6 at its C-terminal was expressed and purified by Ni-NTA column chromatography as described elsewhere (Masutani et al., in preparation). […]
(§2) The compounds were dissolved in distilled dimethyl sulfoxide (DMSO) at various concentrations and sonicated for 30 sec. […] Activity without the inhibitor was considered 100%, and the remaining activity at each concentration of the inhibitor was determined relative to this value. […]

[3] = system: HeLa (cervix carcinoma cells); assay: Cancer cell growth, MTT assay, HeLa; assay type: cell-based, human; conditions: 24 h
Protocol: Figure 5. (A) Human cancer cell growth inhibition dose-response curves of 3-O-methyl-funicone (1). Various concentrations (0 to 150 μM) of compound 1 were incubated with human colon carcinoma (HCT116) cells (circle) and human cervix carcinoma (HeLa) cells (square) for 24 h. Rate of cell growth was determined by MTT assay as described in the Experimental section. Data are shown as the means ± SEM of five independent experiments. (B) Clonogenic survival of UV-treated HeLa cells by compound 1. Various concentrations (0 to 100 μM) of compound 1 were incubated with 10 J/m^2 UV-treated (closed circle) or untreated (open circle) HeLa cells. After 7 days, the number of colonies in each treatment group was counted. Values are the means ± SEM of two independent experiments.
Human colon carcinoma cell line, HCT116, was a kind gift from Dr. Bert Vogelstein (Johns Hopkins University, Baltimore, […], USA). Human cervix carcinoma cell line, HeLa, was obtained from Health Science Research Resources Bank (Osaka, Japan). The cells were maintained in McCoy’s 5A medium supplemented with 10% FBS, sodium bicarbonate (2 g/L) and streptomycin (100 μg/mL). The cells were cultured at 37 °C in standard medium in a humidified atmosphere of 5% CO2-95% air. […] After incubation for 24 h, the survival rate was determined by MTT (3-(4,5-dimethylthiazol-2-yl)-2,5-diphenyl tetrazolium bromide) assay.

cauliflower pol α = assay: DNA polymerase assay, plant pol α; assay type: biochemical; conditions: 100 μM
Description: as §1, §2

mouse pol ι = target: T2, mouse pol ι (Mus musculus, UniProt Q6R3M4); assay: DNA polymerase assay, pol ι; assay type: biochemical
T2 construct: His6 (C); made in house
Description: as §1, §2

human topoisomerase I = target: T3, human topoisomerase I (Homo sapiens, UniProt P11387); assay: DNA topoisomerase I assay; assay type: biochemical; conditions: 100 μM
T3 construct: Purified human placenta DNA topoisomerases I and II were purchased from TopoGen, Inc; purchased TopoGen, Inc. (Columbus, OH, USA); host or cells: human placenta (tissue-purified)
Description: as §1, with “al..” for “al.. A recombinant mouse pol ι tagged with His6 at its C-terminal was expressed and purified by Ni-NTA column chromatography as described elsewhere (Masutani et al., in preparation).”
(§3) The activities of calf primase of pol α, human telomerase, T7 RNA polymerase, mouse IMP dehydrogenase, human DNA topoisomerases I and II, T4 polynucleotide kinase and bovine DNase I were measured in standard assays according to the manufacturer’s specifications, as described by Tamiya-Koizumi et al., Oda et al., Nakayama et al., Mizushina et al., Ishimaru et al., Soltis et al. and Lu et al., respectively.

T7 RNA polymerase = target: T4, T7 RNA polymerase (Escherichia phage T7, UniProt P00573); assay: T7 RNA polymerase assay; assay type: biochemical; conditions: 100 μM
T4 construct: purchased Takara Bio (Tokyo, Japan)
Description: as §1, with “al..” for “al.. A recombinant mouse pol ι tagged with His6 at its C-terminal was expressed and purified by Ni-NTA column chromatography as described elsewhere (Masutani et al., in preparation).”
as §3

T2 sequence (Q6R3M4 whole entry): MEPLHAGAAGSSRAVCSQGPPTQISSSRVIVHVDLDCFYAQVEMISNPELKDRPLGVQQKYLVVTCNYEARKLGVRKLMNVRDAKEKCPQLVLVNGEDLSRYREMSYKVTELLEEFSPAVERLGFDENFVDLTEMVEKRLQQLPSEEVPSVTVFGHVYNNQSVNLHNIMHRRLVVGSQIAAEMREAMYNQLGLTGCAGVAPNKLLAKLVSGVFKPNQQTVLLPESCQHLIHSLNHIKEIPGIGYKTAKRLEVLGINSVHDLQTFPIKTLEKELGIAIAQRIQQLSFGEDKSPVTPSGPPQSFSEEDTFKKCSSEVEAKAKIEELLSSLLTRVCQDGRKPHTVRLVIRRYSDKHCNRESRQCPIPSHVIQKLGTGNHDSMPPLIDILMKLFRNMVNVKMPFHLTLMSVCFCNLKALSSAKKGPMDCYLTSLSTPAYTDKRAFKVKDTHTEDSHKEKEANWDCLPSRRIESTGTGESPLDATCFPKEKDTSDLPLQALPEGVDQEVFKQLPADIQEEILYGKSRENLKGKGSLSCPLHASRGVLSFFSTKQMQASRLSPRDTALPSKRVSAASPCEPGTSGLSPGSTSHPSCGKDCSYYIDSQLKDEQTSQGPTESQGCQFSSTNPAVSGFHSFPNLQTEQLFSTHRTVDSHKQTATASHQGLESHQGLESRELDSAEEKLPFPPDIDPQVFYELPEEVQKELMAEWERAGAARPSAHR
T4 sequence (P00573 whole entry): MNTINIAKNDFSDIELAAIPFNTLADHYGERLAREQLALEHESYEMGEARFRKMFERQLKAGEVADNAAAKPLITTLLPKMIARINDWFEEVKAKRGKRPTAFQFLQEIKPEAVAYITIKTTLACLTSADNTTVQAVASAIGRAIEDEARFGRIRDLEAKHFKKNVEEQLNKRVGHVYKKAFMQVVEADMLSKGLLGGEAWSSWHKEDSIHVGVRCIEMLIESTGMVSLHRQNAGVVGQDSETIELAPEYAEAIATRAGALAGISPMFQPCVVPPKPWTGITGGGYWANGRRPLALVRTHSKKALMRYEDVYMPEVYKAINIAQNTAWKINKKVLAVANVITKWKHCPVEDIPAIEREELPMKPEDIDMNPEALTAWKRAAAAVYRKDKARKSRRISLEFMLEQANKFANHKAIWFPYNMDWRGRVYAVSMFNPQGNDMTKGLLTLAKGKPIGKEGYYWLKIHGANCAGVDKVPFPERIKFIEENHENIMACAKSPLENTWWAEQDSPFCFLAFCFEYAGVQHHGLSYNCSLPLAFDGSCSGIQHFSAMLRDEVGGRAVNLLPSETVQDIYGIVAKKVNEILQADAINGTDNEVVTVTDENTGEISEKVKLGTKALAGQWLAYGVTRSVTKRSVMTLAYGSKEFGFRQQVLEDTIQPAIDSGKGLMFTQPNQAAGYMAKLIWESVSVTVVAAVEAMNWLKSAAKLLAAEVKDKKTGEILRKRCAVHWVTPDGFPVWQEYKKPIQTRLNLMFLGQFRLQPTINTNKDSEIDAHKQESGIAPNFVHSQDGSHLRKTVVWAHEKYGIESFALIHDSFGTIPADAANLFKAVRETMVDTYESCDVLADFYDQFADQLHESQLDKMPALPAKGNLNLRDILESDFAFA
T3 sequence (P11387 whole entry): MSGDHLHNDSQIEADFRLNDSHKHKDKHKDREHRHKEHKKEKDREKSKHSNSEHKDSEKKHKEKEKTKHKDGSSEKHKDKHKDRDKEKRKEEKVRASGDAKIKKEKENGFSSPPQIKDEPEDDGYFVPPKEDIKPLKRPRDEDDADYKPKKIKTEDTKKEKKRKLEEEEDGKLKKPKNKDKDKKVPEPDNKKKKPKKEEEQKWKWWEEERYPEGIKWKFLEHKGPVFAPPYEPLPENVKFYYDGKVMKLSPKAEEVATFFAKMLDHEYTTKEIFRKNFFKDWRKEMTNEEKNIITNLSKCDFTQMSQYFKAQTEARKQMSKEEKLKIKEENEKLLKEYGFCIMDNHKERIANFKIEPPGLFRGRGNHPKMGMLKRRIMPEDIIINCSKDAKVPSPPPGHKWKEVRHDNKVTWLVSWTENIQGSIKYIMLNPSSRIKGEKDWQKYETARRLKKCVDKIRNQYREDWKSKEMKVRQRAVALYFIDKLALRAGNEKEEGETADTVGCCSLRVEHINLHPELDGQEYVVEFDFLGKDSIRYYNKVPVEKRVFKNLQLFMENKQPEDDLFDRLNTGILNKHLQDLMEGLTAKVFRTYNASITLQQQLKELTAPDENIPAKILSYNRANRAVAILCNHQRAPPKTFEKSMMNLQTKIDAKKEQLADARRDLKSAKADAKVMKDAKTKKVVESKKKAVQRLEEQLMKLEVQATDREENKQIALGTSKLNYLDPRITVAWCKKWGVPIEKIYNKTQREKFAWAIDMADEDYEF

## C/C=C/c1occ(C(=O)c2c(OC)cc(OC)cc2C(=O)OC)c(=O)c1OC [compound 1, 3-O-methylfunicone]
[1]
  effect on cell proliferation and growth: did not influence
[2]
  effect on HIV-1 reverse transcriptase activity: did not influence
[3]
  LD50, cell growth: 63.3 µM
Cauliflower pol α
  effect on cauliflower pol α activity: no effect
Mouse pol ι; 100 μM
  effect on pol ι activity: selectively inhibit
Mouse pol ι; poly(dA)/oligo(dT)18 and dTTP, 0.05 units enzyme, read-out: 50% inhibition of pol ι (IC50)
  pIC50: 4.46
Human topoisomerase I
  effect on human topoisomerase I activity: did not influence
T7 RNA polymerase
  effect on T7 RNA polymerase activity: did not influence
